According to patent US11827628B2, “Compositions and methods for inhibition of the JAK pathway” (Rigel Pharmaceuticals, Inc., priority 2005, dated 2023):
Where a name gives a salt, the structure may show the parent alone. Read-outs that look alike come from different tables or passages of the source.

What was measured:
Type in all cases: cell-based
[1] = test system: IL-4 stimulated expression of CD23 in human Ramos B cells (JAK-1 and JAK-3); experiment: Assay for Ramos B-Cell Line Stimulated with IL-4 (CD23 upregulation, FACS); details: read-out: IC50, Example 41
In short: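 Compound effect on IL-4-driven JAK1/JAK3 signalling is gauged as CD23 surface expression, measured by FACS after 20-24 h of stimulation with IL-4 at 50 units/mL final. A 1 h compound pre-treatment at 37 °C precedes stimulation, and IC50 is derived from the results.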

[2] = test system: up-regulation of ICAM-1 (CD54) by IFNγ in U937 human monocytic cells; experiment: U937 IFNγ ICAM1 FACS Assay; details: ICAM-1 expression by FACS, read-out: IC50, Example 44
From the text: The activity of the compounds of the invention may additionally be characterized by assaying the effect of the 2,4-substituted pyrimidinediamine compounds described herein on A549 lung epithelial cells and U937 cells. A549 lung epithelial cells and U937 cells up-regulate ICAM-1 (CD54) surface expression in response to a variety of different stimuli. Therefore, using ICAM-1 expression as readout, test compound effects on different signaling pathways can be assessed in the same cell type. Stimulation with IL-1β through the IL-1β receptor activates the TRAF6/NFκB pathway resulting in up-regulation of ICAM-1. IFNγ induces ICAM-1 up-regulation through activation of the JAK1/JAK2 pathway. The up-regulation of ICAM-1 can be quantified by flow cytometry across a compound dose curve and EC50, values are calculated.
U937 human monocytic cells up-regulate ICAM-1 (CD54) surface expression in response to a variety of different stimuli. Therefore, using ICAM-1 expression as readout, compound effects on different signaling pathways can be assessed in the same cell type. IFNγ up-regulates ICAM-1 through activation of the JAK/Stat pathway. In this example, the up-regulation of ICAM-1 by IFNγ was assessed.
The U937 human monocytic cell line was obtained from ATCC of Rockville Maryland, catalog number CRL-1593.2, and cultured in RPM1-1640 medium containing 10% (v/v) FCS. U937 cells were grown in 10% RPMI. The cells were then plated at a concentration of 100,000 cells per 160 μL in 96 well flat bottom plates. […] Then 4 μL of test compound was transferred to 76 μL of 10% RPMI resulting in a 10× solution (100 μM test compound, 5% DMSO). For control wells, 4 μL of DMSO was diluted into 76 μL 10% RPMI.
The assay was performed in duplicate with 8 points (8 3-fold dilution concentrations from […]) and with 4 wells of DMSO only (control wells) under stimulated conditions and 4 wells of DMSO only under unstimulated conditions.
The diluted compound plate was mixed 2× using a multimek (Beckman Coulter of Brea, California) and then 20 μL of the diluted compounds was transferred to the 96 well plate containing 160 μL of cells, which were then mixed again twice at low speeds. The cells and compounds were then pre-incubated for 30 minutes at 37° C. with 5% CO2.
The 10× stimulation mix was made by preparing a 100 ng/mL solution of human IFNγ in 10% RPMI. […] The cells were kept under conditions for stimulation for 18-24 hours at 37° C. with 5% CO2.
The cells were transferred to a 96 well round bottom plate for staining and then kept on ice for the duration of the staining procedure. Cells were spun down at 1000 rpm for 5 minutes at 4° C., following which the supernatant was removed. Following removal of the supernatant, 1 μL APC conjugated mouse anti-human ICAM-1 antibody was added per 100 μL FACS buffer. The cells were then incubated on ice in the dark for 30 minutes. Following incubation, […] of FACS buffer was added and the cells were centrifuged at 1000 rpm for 5 minutes at 4° C., following which the supernatant was removed. After removal of the supernatant, 200 μL of FACS buffer was added and the cells were resuspended. After suspension, the cells were centrifuged at 1000 rpm for 5 min at 4° C. Supernatant was then removed prior to resuspension of the cells in 150 μL FACS buffer.
Detection was performed using a BD LSR I System Flow Cytometer, purchased from BD Biosciences of San Jose, California The live cells were gated for live scatter and the geometric mean of ICAM-APC was measured (Becton-Dickinson CellQuest software version 3.3, Franklin Lakes, NJ). Both % live cells and ICAM-1 expression was analyzed. The assays for the test compounds were carried out in parallel with a control compound of known activity.

Primary human T-cells = experiment: Primary Human T-Cell Proliferation Assay Stimulated with IL-2 (CellTiter-Glo); details: primary human T-cells stimulated with IL-2, proliferation; read-out: IC50, Example 42
In short: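 Peripheral blood T-cells pre-activated with anti-CD3/anti-CD28 and IL-2 were washed free of IL-2, then cultured with compound plus IL-2 for 72 hours at 37° C, duplicate wells. Viability read as ATP by CellTiter-Glo luminescence; IC50 reported.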

[3] = Homo sapiens, Ramos, Ramos B-cell line stimulated with IL-4, CD23 expression by FACS
[4] = Homo sapiens, U-937, U937 cells stimulated with IFNγ
[5] = Ramos B-cell line stimulated with IL-4, CD23 expression by FACS
[6] = U937 cells stimulated with IFNγ
[7] = Ramos B cells stimulated with IL-4, CD23 expression by FACS

Compound: Cc1ccc(Nc2ncc(F)c(Nc3ccc(OCC#N)cc3)n2)cc1S(=O)(=O)NC(=O)C(C)C [Compound I-39, N4-(4-Cyanomethyleneoxy)phenyl-5-fluoro-N2-(3-isobutyrylaminosulfonyl-4-methyl)phenyl-2,4-pyrimidinediamine sodium Salt]
- IC50 ([1]; Ramos B-cell line stimulated with IL-4, CD23 expression by FACS, sodium salt): 841 nM
- IC50 ([2]; U937 cells stimulated with IFNγ, sodium Salt): 9.32 µM

Compound: N#CCOc1ccc(Nc2nc(Nc3cccc(S(N)(=O)=O)c3)ncc2F)cc1CO [Compound I-50, N2-(3-Aminosulfonylphenyl)-N4-(4-cyanomethoxy-3-hydroxymethylphenyl)-5-fluoro-2,4-pyrimidinediamine]
- IC50 [1, 3]: 373 nM
- IC50 [2, 4]: 25.1 µM

Compound: N#CCOc1ccc(Nc2nc(Nc3cccc(S(N)(=O)=O)c3)ncc2F)cc1-c1ccn(CC#N)n1 [Compound I-53, N2-(3-Aminosulfonylphenyl)-N4-[4-cyanomethoxy-3-(1-cyanomethylpyrazol-3-yl)phenyl]-5-fluoro-2,4-pyrimidinediamine]
- IC50 [1, 3]: 236 nM
- IC50 [2, 4]: 12.2 µM

Compound: Cc1ccc(Nc2ncc(F)c(Nc3ccc(OCC#N)c(-c4ccn(CC#N)n4)c3)n2)cc1S(N)(=O)=O [Compound I-54, N2-(3-Aminosulfonyl-4-methylphenyl]-N4-[4-cyanomethoxy-3-(1-cyanomethylpyrazol-3-yl)phenyl]-5-fluoro-2,4-pyrimidinediamine]
- IC50 [1, 3]: 277 nM
- IC50 [2, 4]: 7.16 µM

Compound: CNS(=O)(=O)c1cc(Nc2ncc(F)c(Nc3ccc(OCc4ccccn4)cc3)n2)ccc1C [Compound I-161, 5-Fluoro-N2-[3-(N-methylaminosulfony)-4-methylphenyl]-5-fluoro-N4-[4-(2-pyridinyl)methyleneoxyphenyl]-2,4-pyrimidinediamine]
- IC50 [1, 5]: 314 nM
- IC50 [2, 6]: 2.41 µM

Compound: CNS(=O)(=O)c1cc(Nc2ncc(F)c(Nc3ccc(OCc4cc(C)on4)c(C)c3)n2)ccc1C [Compound I-239, 5-Fluoro-N2-[3-N-(methyl)aminosulfonyl-4-methylphenyl]-N4-[3-methyl-4-(5-methylisoxazol-3-yl)methyleneoxyphenyl]-2,4-pyrimidinediamine]
- IC50 [1, 5]: 240 nM
- IC50 [2, 6]: 7.06 µM

Compound: Cc1cc(COc2ccc(Nc3nc(Nc4cccc(S(=O)(=O)N(Cc5oc(=O)oc5C(C)(C)C)Cc5oc(=O)oc5C(C)(C)C)c4)ncc3F)cc2)no1 [Compound I-249, N2-{3-[N-N-Di-[(5-t-Butyl-1,3-dioxolene-2-one-4-yl)methylene]]aminosulfonylphenyl}-5-fluoro-N4-[4-(5-methylisoxazol-3-yl)methyleneoxyphenyl]-2,4-pyrimidinediamine]
- IC50 [1, 5]: 512 nM
- IC50 [2, 6]: 11 µM

Compound: CCC(=O)NS(=O)(=O)c1cccc(Nc2ncc(F)c(Nc3ccc(OCc4nc(C)no4)cc3)n2)c1 [Compound I-264]
- IC50 [1, 5]: 599 nM
- IC50 [2, 6]: 15 µM

Compound: Cc1ccc(Nc2ncc(F)c(Nc3ccc4c(c3)N(Cc3ccccn3)C(=O)CO4)n2)cc1S(N)(=O)=O [Compound V-3, N2-(3-Aminosulphonyl-4-methylphenyl)-5-fluoro-N4-[3-oxo-4-(2-pyridylmethy)-benz[1,4]oxazin-6-yl]-2,4-pyrimidinediamine]
- IC50 [1, 7]: 664 nM
- IC50 [2, 6]: 13.7 µM

Compound: CCC(=O)NCc1ccc(Nc2nc(Nc3ccc(C)c(S(N)(=O)=O)c3)ncc2F)cc1 [III-37, N2-(3-aminosulfonyl-4-methyl)phenyl-N4-(4-ethylcarbonylaminomethyl)phenyl-5-fluoro-2,4-pyrimidinediamine]
- IC50 [1, 5]: 300 nM
- IC50 [2, 6]: 0.834 µM

Compound: CCN(CC)CCNS(=O)(=O)c1ccc(Nc2ncc(F)c(Nc3ccc(Cc4ccncc4)cc3)n2)cc1 [III-67, N2-[4-(2-N,N-Diethylaminoethyl)aminosulfonylphenyl)-5-fluoro-N4-[4-(4-pyridinylmethyl)phenyl]-2,4-pyrimidinediamine]
- IC50 [1, 5]: 347 nM
- IC50 [2, 6]: 3.05 µM

Compound: N4-(4-Acetylthiomethylcarbonylphenyl)-N2-(3-aminosulfonylphenyl)-5-fluoro-2,4-pyrimidinediamine [IX-42]
- IC50 [1, 7]: 292 nM
- IC50 (Primary human T-cells): 2.17 µM

Compound: N4-(4-Acetylthiomethylcarbonylphenyl)-N2-(4-aminosulfonylphenyl)-5-fluoro-2,4-pyrimidinediamine [IX-41]
- IC50 [1, 7]: 133 nM
- IC50 (Primary human T-cells): 6.26 µM
